According to patent US20230374007A1, “COMPOUNDS AND THEIR USE IN TREATING CANCER” (AstraZeneca AB, priority 2020, published 2023):

These molecules were tested against T1, cereblon (CRBN)—DNA damage protein 1 (DDB1) complex (Homo sapiens, UniProt Q96SW2) (assay: Cereblon HTRF binding assay).
T1 construct: encoding amino acid residues 1 to 442 (Uniprot Q96SW2); hexahistidine (N); thrombin cleavage site (N); made in house; host or cells: Sf9 insect cells (baculovirus co-infection)
Excerpt: The synthesized sequence was designed to encode an N-terminal hexahistidine tag, a thrombin cleavage site, an AviTag™ and a tobacco etch virus protease (TEV) cleavage site followed by the CBRN sequence. The resulting protein sequence is listed below.
The synthesized sequence was designed to encode an N-terminal hexahistidine tag, a tobacco etch virus protease (TEV) cleavage site followed by the DDB1 sequence. […] The linker amino acid residues are underlined and shown in italics.
Baculovirus production of CBRN and DDB1: Recombinant bacmid and P2 virus of CBRN and DDB1 was generated according to the Bac-to-Bac Baculovirus Expression System manual (ThermoFisher Scientific).
Protein Purification: Protein purification was initiated by thawing cells (resuspended in Lysis buffer) at r.t. Once thawed, NaCl was added to a final concentration of 200 mM, followed by 0.01 μL/mL Benzonase™ and the lysate was incubated with slow stirring for 20 minutes. After the freeze-thaw lysis, the whole cell lysate was centrifuged at 48 000 g for 45 minutes and all following purification steps were done on ice or in cold-room. Supernatant (cell lysate) was mixed with 1 mL/50 mL lysate Ni Sepharose™ 6 Fast Flow (Cytiva) pre-equilibrated with Wash buffer (50 mM Tris-Cl pH 8, 20 mM Imidazole, 500 mM NaCl, 10% Glycerol, 1 mM TCEP) and incubated with slow stirring for 1 h. The mix was loaded in a 70 mL open gravity flow column, washed with 10 bed volumes of Wash buffer, and stepwise eluted with 300 mM imidazole in Wash buffer. […] After biotinylation, the CBRN/DDB1 complex was purified by Size Exclusion Chromatography on a HiLoad™ 26/60 Superdex™ 200 column equilibrated in SEC buffer (50 mM HEPES pH 7.5, 200 mM NaCl, 5% glycerol, 1 mM TCEP) before flash-freezing in liquid nitrogen and storage at −80° C.
The assay mixture in a total volume of 4 μL consists of 50 mM Tris-HCl at pH 7.5, 100 mM NaCl, 0.01% Pluronic F127, 1 mM TCEP, 500 μM EDTA, 0.2 nM CRBN-DDB1, 0.2 nM terbium cryptate labeled streptavidin, and 2 nM Cyanine 5-labeled lenalidomide as the probe. […] Reagents were dispensed into the 384-well assay microplate using a Certus Flex liquid dispenser. After incubation for 2 h at r.t., the assay plates were read on a PHERAstar FSX plate reader (BMG Labtech) in the HTRF mode. The raw data from PHERAstar was directly imported into Genedata Screener for analysis. […] The ratio was normalized to positive and negative controls on the same plates to calculate percent inhibition: I %=(I−NC)/(PC−NC), where I are readings from the compound treated well, NC and PC are average readings from negative control wells and positive control wells, respectively. IC50 values were obtained by fitting the I % vs. compound concentration [I] to I %=S0+(SInf−S0)/(1+((IC50/[I])^n)), where S0 is the fitted activity level at zero concentration of test compound, SInf is the fitted activity level at […] concentration of test compound, and n is the hill coefficient of the curve.
The IC50 values reported below are the calculated mean result of one or more experiments.

T1 sequence (Q96SW2 with tags, fused parts or gaps): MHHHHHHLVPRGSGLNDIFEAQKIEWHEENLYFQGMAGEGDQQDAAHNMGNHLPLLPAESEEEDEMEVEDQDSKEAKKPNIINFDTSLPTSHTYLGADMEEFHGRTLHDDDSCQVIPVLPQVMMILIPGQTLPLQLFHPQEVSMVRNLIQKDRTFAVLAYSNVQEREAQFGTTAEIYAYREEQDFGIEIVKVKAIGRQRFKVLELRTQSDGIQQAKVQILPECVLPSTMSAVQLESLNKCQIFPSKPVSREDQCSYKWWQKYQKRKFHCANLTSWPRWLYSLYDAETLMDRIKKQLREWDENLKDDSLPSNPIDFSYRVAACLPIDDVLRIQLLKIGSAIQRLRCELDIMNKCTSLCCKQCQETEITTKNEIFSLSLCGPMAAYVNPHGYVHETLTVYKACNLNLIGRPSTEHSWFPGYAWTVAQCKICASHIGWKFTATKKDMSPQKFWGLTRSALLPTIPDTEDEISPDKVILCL

**Q.** Which IC50 does the source give for `Cc1c(-n2ccc(=O)[nH]c2=O)cnc2cc[nH]c12` [Example 48, 1-(7-Methyl-1H-pyrrolo[3,2-b]pyridin-6-yl)pyrimidine-2,4 (1H,3H)-dione] here?
**A.** The IC50 was 1970 nM.

**Q.** Which IC50 does the source give for `Cc1c(N2CCC(=O)NC2=O)cnc2cc[nH]c12` [Example 49, 1-(7-Methyl-1H-pyrrolo[3,2-b]pyridin-6-yl)dihydropyrimidine-2,4 (1H,3H)-dione] here?
**A.** Its IC50 is 124 nM.

**Q.** How did the IC50 turn out when `O=C1CCN(c2cc(F)c3cc[nH]c3c2)C(=O)N1` [Example 50, 1-(4-Fluoro-1H-indol-6-yl)dihydropyrimidine-2,4 (1H,3H)-dione] was run?
**A.** The IC50 was 226 nM.

**Q.** `Cc1cc(N2CCC(=O)NC2=O)cc2[nH]ccc12` [Example 51, 1-(4-Methyl-1H-indol-6-yl)dihydropyrimidine-2,4 (1H,3H)-dione] was tested. Which IC50 did it give?
**A.** The IC50 was 511 nM.

**Q.** With `COc1cc(N2CCC(=O)NC2=O)cc2[nH]ccc12` [Example 52, 1-(4-Methoxy-1H-indol-6-yl)dihydropyrimidine-2,4 (1H,3H)-dione] as the molecule, how does the IC50 read?
**A.** Its IC50 is 445 nM.

**Q.** How did the IC50 turn out when `O=C1CCN(c2cc(Cl)c3cc[nH]c3c2)C(=O)N1` [Example 53, 1-(4-Chloro-1H-indol-6-yl)dihydropyrimidine-2,4 (1H,3H)-dione] was run?
**A.** The IC50 was 244 nM.

**Q.** `O=C1CCN(c2ccc3cc[nH]c3c2F)C(=O)N1` [Example 54, 1-(7-Fluoro-1H-indol-6-yl)dihydropyrimidine-2,4 (1H,3H)-dione] was tested. Which IC50 did it give?
**A.** The IC50 was 188 nM.

**Q.** How did the IC50 turn out when `O=C1CCN(c2ccc3[nH]ccc3c2)C(=O)N1` [Example 56, 1-(1H-Indol-5-yl)dihydropyrimidine-2,4 (1H,3H)-dione] was run?
**A.** Its IC50 is 341 nM.

**Q.** Which IC50 does the source give for `Cc1c(N2CCC(=O)NC2=O)ccc2cc[nH]c12` [Example 57, 1-(7-Methyl-1H-indol-6-yl)dihydropyrimidine-2,4 (1H,3H)-dione] here?
**A.** Its IC50 is 96 nM.

**Q.** With `Cc1c(N2CCC(=O)NC2=O)c(F)cc2cc[nH]c12` [Example 58, 1-(5-Fluoro-7-methyl-1H-indol-6-yl)dihydropyrimidine-2,4 (1H,3H)-dione] as the molecule, how does the IC50 read?
**A.** The IC50 was 288 nM.

**Q.** For `O=C1CCN(c2cc3[nH]ccc3cc2F)C(=O)N1` [Example 60, 1-(5-Fluoro-1H-indol-6-yl)dihydropyrimidine-2,4 (1H,3H)-dione], which IC50 is on record?
**A.** Its IC50 is 444 nM.

**Q.** `COc1cc2cc[nH]c2cc1N1CCC(=O)NC1=O` [Example 61, 1-(5-Methoxy-1H-indol-6-yl)dihydropyrimidine-2,4 (1H,3H)-dione] was tested. Which IC50 did it give?
**A.** The IC50 was 1510 nM.

**Q.** With `COc1c(N2CCC(=O)NC2=O)ccc2cc[nH]c12` [Example 62, 1-(7-Methoxy-1H-indol-6-yl)dihydropyrimidine-2,4 (1H,3H)-dione] as the molecule, how does the IC50 read?
**A.** Its IC50 is 2140 nM.

**Q.** For `O=C1CCN(c2c(F)ccc3[nH]ccc23)C(=O)N1` [Example 63, 1-(5-Fluoro-1H-indol-4-yl)dihydropyrimidine-2,4 (1H,3H)-dione], which IC50 is on record?
**A.** The IC50 was 235 nM.

**Q.** `O=C1CCN(c2c(Cl)ccc3[nH]ccc23)C(=O)N1` [Example 64, 1-(5-Chloro-1H-indol-4-yl)dihydropyrimidine-2,4 (1H,3H)-dione] was tested. Which IC50 did it give?
**A.** The IC50 was 78 nM.

**Q.** Which IC50 does the source give for `O=C(O)Cc1c[nH]c2cc(N3CCC(=O)NC3=O)ccc12` [Example 65, 2-(6-(2,4-Dioxotetrahydropyrimidin-1 (2H)-yl)-1H-indol-3-yl)acetic acid] here?
**A.** Its IC50 is 755 nM.

**Q.** Which IC50 does the source give for `CNC(=O)Cc1c[nH]c2cc(N3CCC(=O)NC3=O)ccc12` [Example 66, 2-(6-(2,4-Dioxotetrahydropyrimidin-1 (2H)-yl)-1H-indol-3-yl)-N-methylacetamide] here?
**A.** Its IC50 is 264 nM.

**Q.** For `CNC(=O)Cc1cc2ccc(N3CCC(=O)NC3=O)cc2[nH]1` [Example 67, 2-(6-(2,4-Dioxotetrahydropyrimidin-1 (2H)-yl)-1H-indol-2-yl)-N-methylacetamide], which IC50 is on record?
**A.** The IC50 was 974 nM.

**Q.** For `CNC(=O)Cn1ccc2ccc(N3CCC(=O)NC3=O)cc21` [Example 68, 2-(6-(2,4-Dioxotetrahydropyrimidin-1 (2H)-yl)-1H-indol-1-yl)-N-methylacetamide], which IC50 is on record?
**A.** Its IC50 is 2210 nM.

**Q.** With `CNC(=O)CCn1ccc2ccc(N3CCC(=O)NC3=O)cc21` [Example 69, 3-(6-(2,4-Dioxotetrahydropyrimidin-1 (2H)-yl)-1H-indol-1-yl)-N-methylpropanamide] as the molecule, how does the IC50 read?
**A.** The IC50 was 3540 nM.

**Q.** With `CNC(=O)Cn1ccc2c(N3CCC(=O)NC3=O)cccc21` [Example 70, 2-(4-(2,4-Dioxotetrahydropyrimidin-1 (2H)-yl)-1H-indol-1-yl)-N-methylacetamide] as the molecule, how does the IC50 read?
**A.** Its IC50 is 1010 nM.

**Q.** For `O=C1CCN(c2ccc3c(N4CCNCC4)c[nH]c3c2)C(=O)N1` [Example 71, 1-(3-(Piperazin-1-yl)-1H-indol-6-yl)dihydropyrimidine-2,4 (1H,3H)-dione], which IC50 is on record?
**A.** The IC50 was 1130 nM.

**Q.** How did the IC50 turn out when `CN1CCN(c2c[nH]c3cc(N4CCC(=O)NC4=O)ccc23)CC1` [Example 72, 1-(3-(4-Methylpiperazin-1-yl)-1H-indol-6-yl)dihydropyrimidine-2,4 (1H,3H)-dione] was run?
**A.** The IC50 was 926 nM.

**Q.** How did the IC50 turn out when `CC(=O)N1CCN(c2c[nH]c3cc(N4CCC(=O)NC4=O)ccc23)CC1` [Example 73, 1-(3-(4-Acetylpiperazin-1-yl)-1H-indol-6-yl)dihydropyrimidine-2,4 (1H,3H)-dione] was run?
**A.** Its IC50 is 963 nM.

**Q.** Which IC50 does the source give for `Cn1cc(N2CCNCC2)c2ccc(N3CCC(=O)NC3=O)cc21` [Example 74, 1-(1-Methyl-3-(piperazin-1-yl)-1H-indol-6-yl)dihydropyrimidine-2,4 (1H,3H)-dione] here?
**A.** The IC50 was 3810 nM.

**Q.** `CN1CCN(c2cn(C)c3cc(N4CCC(=O)NC4=O)ccc23)CC1` [Example 75, 1-(1-Methyl-3-(4-methylpiperazin-1-yl)-1H-indol-6-yl)dihydropyrimidine-2,4 (1H,3H)-dione] was tested. Which IC50 did it give?
**A.** Its IC50 is 4040 nM.

**Q.** With `Cn1cc(N2CCNCC2)c2cc(N3CCC(=O)NC3=O)ccc21` [Example 76, 1-(1-Methyl-3-(piperazin-1-yl)-1H-indol-5-yl)dihydropyrimidine-2,4 (1H,3H)-dione] as the molecule, how does the IC50 read?
**A.** Its IC50 is 1920 nM.

**Q.** For `O=C1CCN(c2ccc3[nH]cc(N4CCNCC4)c3c2)C(=O)N1` [Example 77, 1-(3-(Piperazin-1-yl)-1H-indol-5-yl)dihydropyrimidine-2,4 (1H,3H)-dione], which IC50 is on record?
**A.** The IC50 was 562 nM.

**Q.** With `CN1CCN(c2c[nH]c3ccc(N4CCC(=O)NC4=O)cc23)CC1` [Example 78, 1-(3-(4-Methylpiperazin-1-yl)-1H-indol-5-yl)dihydropyrimidine-2,4 (1H,3H)-dione] as the molecule, how does the IC50 read?
**A.** The IC50 was 1870 nM.

**Q.** For `CC(=O)N1CCN(c2c[nH]c3ccc(N4CCC(=O)NC4=O)cc23)CC1` [Example 79, 1-(3-(4-Acetylpiperazin-1-yl)-1H-indol-5-yl)dihydropyrimidine-2,4 (1H,3H)-dione], which IC50 is on record?
**A.** Its IC50 is 1980 nM.

**Q.** Which IC50 does the source give for `CN1CCN(c2cn(C)c3ccc(N4CCC(=O)NC4=O)cc23)CC1` [Example 80, 1-(1-Methyl-3-(4-methylpiperazin-1-yl)-1H-indol-5-yl)dihydropyrimidine-2,4 (1H,3H)-dione] here?
**A.** The IC50 was 3150 nM.

**Q.** `O=C1CCN(c2ccc3cc(C4CCNCC4)[nH]c3c2)C(=O)N1` [Example 81, 1-(2-(Piperidin-4-yl)-1H-indol-6-yl)dihydropyrimidine-2,4 (1H,3H)-dione] was tested. Which IC50 did it give?
**A.** Its IC50 is 65 nM.

**Q.** How did the IC50 turn out when `CN1CCC(c2cc3ccc(N4CCC(=O)NC4=O)cc3[nH]2)CC1` [Example 82, 1-(2-(1-Methylpiperidin-4-yl)-1H-indol-6-yl)dihydropyrimidine-2,4 (1H,3H)-dione] was run?
**A.** Its IC50 is 168 nM.

**Q.** `CC(=O)N1CCC(c2cc3ccc(N4CCC(=O)NC4=O)cc3[nH]2)CC1` [Example 83, 1-(2-(1-Acetylpiperidin-4-yl)-1H-indol-6-yl)dihydropyrimidine-2,4 (1H,3H)-dione] was tested. Which IC50 did it give?
**A.** The IC50 was 113 nM.

**Q.** `Cn1c(C2CCNCC2)cc2ccc(N3CCC(=O)NC3=O)cc21` [Example 84, 1-(1-Methyl-2-(piperidin-4-yl)-1H-indol-6-yl)dihydropyrimidine-2,4 (1H,3H)-dione] was tested. Which IC50 did it give?
**A.** The IC50 was 357 nM.

**Q.** Which IC50 does the source give for `CN1CCC(c2cc3ccc(N4CCC(=O)NC4=O)cc3n2C)CC1` [Example 85, 1-(1-Methyl-2-(1-methylpiperidin-4-yl)-1H-indol-6-yl)dihydropyrimidine-2,4 (1H,3H)-dione] here?
**A.** Its IC50 is 195 nM.

**Q.** How did the IC50 turn out when `O=C1CCN(c2cccc3[nH]c(C4CCNCC4)cc23)C(=O)N1` [Example 86, 1-(2-(Piperidin-4-yl)-1H-indol-4-yl)dihydropyrimidine-2,4 (1H,3H)-dione] was run?
**A.** The IC50 was 291 nM.
